Measurements as given in paper PMC12386745, “Benzofuran Derivatives with Antimicrobial and Anti-Inflammatory Activities from Penicillium crustosum SCNU-F0046” (International Journal of Molecular Sciences, 2025).
In brackets after ≈: the same amount, converted by molar mass. Like-named read-outs stand apart in the source and are kept apart here.

Tests used:
Penicillium italicum = test: Antimicrobial MIC, 96-well broth dilution; assay type: cell-based; conditions: tested range 0.78–100 μg/mL, 48 h at 27 °C, means of three parallel experiments, read-out: minimum inhibitory concentration (MIC)
Source text: (§1) In contrast, for fungal inhibition activity, aza-benzofuran compounds show lower activity than oxa-benzofuran compounds. […] In terms of antifungal activity, when compound 5 and 6 form hydroxyl groups at position C-6, their polarity […], making them more susceptible to penetrating fungal cell membranes through hydrophobic mechanisms.
(§2) The minimum inhibitory concentration (MIC) values of antimicrobial activity of compounds 1–4 against three different plant pathogenic […], including Penicillium italicum, Fusarium oxysporum and Colletotrichum musae, and three human pathogenic bacteria, including Salmonella typhimurium (ATCC 6539), Escherichia coli (ATCC 25922) and Staphylococcus aureus (ATCC 12598), were determined via serial dilution technique employing 96-well microtiter plates. In brief, the bacterial cell suspension was adjusted to an inoculum density of 5 × 10^5 cfu/mL by comparison with a MacFarland standard before use. The fungal thallus concentration was adjusted to 1 × 10^6 cfu/mL. The tested compounds in dimethyl sulfoxide (DMSO) were added to PDB/MH broth medium to obtain a series of final concentrations of 100, 50, 25, 12.5, 6.25, 3.13, 1.57, 0.78 μg/mL. DMSO and carbendazim/ciprofloxacin served as negative and positive controls, respectively. The antifungal plates were incubated for 48 h at 27 °C, and the antibacterial plates were incubated for 24 h at 27 °C. Ten microliters of resazurin dissolved in DMSO at 100 μg/mL was added to each well of the microplate, followed by incubation at 27 °C for 3 h. We determined the MIC values by observing color changes using the visual endpoint method. For each parallel experiment, three replicates were measured.

Colletotrichum musae = test: Antimicrobial MIC, 96-well broth dilution; assay type: cell-based; conditions: tested range 0.78–100 μg/mL, 48 h at 27 °C, means of three parallel experiments; for MIC: 48 h, read-out: minimum inhibitory concentration (MIC)
Source text: as §1, §2

Fusarium oxysporum = test: Antimicrobial MIC, 96-well broth dilution; assay type: cell-based; conditions: tested range 0.78–100 μg/mL, 48 h at 27 °C, means of three parallel experiments, read-out: minimum inhibitory concentration (MIC)
Source text: as §1, §2

[1] = test system: LPS-stimulated RAW 264.7 cells; test: Inhibition of NO production (Griess reagent) in LPS-stimulated macrophages; assay type: cell-based, mouse; conditions: 4 h pretreatment, 1 μg/mL LPS for 24 h, mean ± SD, three independent experiments
Procedure: (§3) The anti-inflammatory activities of compounds 1–4 were evaluated by assessing the inhibition of nitric oxide (NO) production in lipopolysaccharide (LPS)-stimulated murine macrophage RAW 264.7 cells. […] In addition, we also tested the cytotoxicity of compounds 1–4, and cytotoxicity was assessed independently of LPS stimulation.
The nitrite concentration in the culture medium was measured using the Griess reagent, as previously reported, with slight modifications. The mouse macrophage cell line RAW 264.7 cells were purchased from the Shanghai Institutes for Biological Sciences and cultured in DMEM (high-glucose) medium supplemented with 10% (v/v) fetal bovine serum, 100 μg·mL^−1 penicillin and streptomycin, and 10 mM HEPES at 37 °C in a 5% CO2 atmosphere. Cells were pretreated with different samples dissolved in serum-free culture medium containing 0.5% DMSO (10, 5, 2.5, 1.25, and 0.625 μM) for 4 h, followed by stimulation with 1 μg·mL^−1 LPS for 24 h. Then, 50 μL of cell culture medium was mixed with 100 μL of Griess reagent I and II and incubated at room temperature for 10 min with horizontal shaking, after which the absorbance at 540 nm was measured in a microplate reader. Indomethacin was used as a positive control and was purchased from Sigma-Aldrich (St. Louis, MI, USA) Co. Wells with DMSO were used as a negative control (final DMSO concentration was 0.1%). The NO production inhibition rate was calculated using the flowing formula: NO production inhibition rate (%) =LPS group−Compound group/LPS group−DMSO group×100
IC50 is the concentration of the compound that inhibits 50% of NO production relative to the LPS group. All assays were performed in triplicate. The inhibition rates were calculated and plotted versus test concentrations to afford the IC50 (±SD) for three independent tests. Data were analyzed using SPSS 26.0 software. p < 0.05 was considered statistically significant.

Cytotoxicity, MTT assay = assay type: cell-based; conditions: mouse
Procedure: as §3
Cell viability was evaluated using MTT (3-(4,5-Dimethylthiazol-2-yl)-2,5-diphenyltetrazolium bromide) assay. RAW 264.7 cells were seeded in 96-well plates at a density of 5 × 10^3 cells per well and incubated overnight. Cells were incubated with tested compounds (DMSO as solvent) at 37 °C for 72 h. Subsequently, 50 μL of MTT/medium solution (0.5 mg/mL) was added to each well, and the cells were incubated for 1 h at 37 °C. After removing the MTT/medium, 100 μL of DMSO was added to each well. The plate was shaken to dissolve the precipitate, and activity was measured at 540 nm using a microplate reader. Cell viability was calculated using the following formula: Cell viability/% = (Absorbance of treated cells − Absorbance of blank control)/(Absorbance of negative control − Absorbance of blank control) × 100. The half-maximal inhibitory concentration (IC50) was calculated with Origin 8 Pro.

[2] = test system: Escherichia coli (ATCC 25922); test: Antimicrobial MIC, 96-well broth dilution; assay type: cell-based; conditions: ATCC25922, tested range 0.78–100 μg/mL, 24 h at 27 °C, means of three parallel experiments, read-out: minimum inhibitory concentration (MIC)
Source text: as §1, §2

[3] = test system: Staphylococcus aureus (ATCC 12598); test: Antimicrobial MIC, 96-well broth dilution; assay type: cell-based; conditions: read-out: minimum inhibitory concentration (MIC)
Source text: as §1, §2

[4] = test system: Salmonella typhimurium (ATCC 6539); test: Antimicrobial MIC, 96-well broth dilution; assay type: cell-based; conditions: Salmonella enterica, 24 h, read-out: minimum inhibitory concentration (MIC)
Source text: as §1, §2

[5] = Mus musculus, RAW264.7, RAW 264.7 cells
[6] = ATCC12598, tested range 0.78–100 μg/mL, 24 h at 27 °C, means of three parallel experiments
[7] = RAW 264.7 cells, MTT, 72 h, without LPS stimulation, read-out: Cytotoxicity (CC50)

Compound	MIC (Penicillium italicum)	MIC (Colletotrichum musae)	MIC (Fusarium oxysporum)	IC50 [1, 5]	CC50 at 72 h (Cytotoxicity, MTT assay)	MIC [2]	MIC [3, 6]	MIC [4]	IC50 ([1]; RAW 264.7 cells)	MIC ([3]; ATCC12598, 24 h)	CC50 at 72 h (Cytotoxicity, MTT assay; [7])	minimum inhibitory concentration (MIC) (Colletotrichum musae)
COC(=O)Nc1nc2ccccc2[nH]1 [Carbendazim, reference compound]	0.78 µg/mL (≈ 4.08 µM)	0.78 µg/mL (≈ 4.08 µM)	1.56 µg/mL (≈ 8.16 µM)									
Cc1ccc(-c2cc(C(F)(F)F)nn2-c2ccc(S(N)(=O)=O)cc2)cc1 [Celecoxib, reference compound]				32.1 ± 1.7 µM	> 50 µM							
O=C(O)c1cn(C2CC2)c2cc(N3CCNCC3)c(F)cc2c1=O [Ciprofloxacin, reference compound]						0.8 µg/mL (≈ 2.41 µM)	0.1 µg/mL (≈ 0.302 µM)	0.2 µg/mL (≈ 0.604 µM)				
Cc1cc2ccc3cc(C(C)(C)O)oc3c2cn1 [Compound 1]	50 µg/mL (≈ 207 µM)	50 µg/mL (≈ 207 µM)	50 µg/mL (≈ 207 µM)	17.3 µM		25 µg/mL (≈ 104 µM)		12.5 µg/mL (≈ 51.8 µM)	17.3 ± 1.6 µM	12.5 µg/mL (≈ 51.8 µM)	> 50 µM	
Cc1cc2ccc3c(c2cn1)OC(C(C)(C)O)C3 (centres unmarked) [Compound 2]	50 µg/mL (≈ 206 µM)	25 µg/mL (≈ 103 µM)	50 µg/mL (≈ 206 µM)	31.5 ± 2.3 µM		50 µg/mL (≈ 206 µM)	25 µg/mL (≈ 103 µM)	50 µg/mL (≈ 206 µM)			> 50 µM	
Cc1cc2ccc3c(c2cn1)O[C@@](O)(C(C)C)C3=O [Compound 3, TMC-120 C]											> 50 µM	
CC(C)=C1Oc2c(ccc3cc(C)ncc23)C1=O [Compound 4, TMC-120 B]											> 50 µM	
CC(C)(O)C1Cc2ccc(C=CC(=O)O)c(CO)c2O1 (centres unmarked) [Compound 5]	12.5 µg/mL (≈ 44.9 µM)	12.5 to 25 µg/mL (≈ 44.9 to 89.8 µM)	50 µg/mL (≈ 180 µM)			50 µg/mL (≈ 180 µM)	50 µg/mL (≈ 180 µM)	50 µg/mL (≈ 180 µM)				25 µg/mL (≈ 89.8 µM)
CC(C)C1(O)Oc2c(ccc(CO)c2CO)C1=O (centres unmarked) [Compound 6]	12.5 µg/mL (≈ 49.6 µM)	12.5 to 25 µg/mL (≈ 49.6 to 99.1 µM)	50 µg/mL (≈ 198 µM)			100 µg/mL (≈ 396 µM)	50 µg/mL (≈ 198 µM)	50 µg/mL (≈ 198 µM)				12.5 µg/mL (≈ 49.6 µM)
